According to PubChem BioAssay AID256 (DTP/NCI, 2004):
Several values for one entry are separate records, joined by “and”; a condition that tells them apart may be missing. Identical values can stand only once. Toxic doses and inconclusive results are not listed. The calls were made as follows: active = survival T/C of 150% or more; inactive = T/C below 125% in these data. Non-standard residues stand in square brackets, D forms with d. Residues, ends and D or L forms follow the SMILES beside them. ξ: configuration not given here. *: point of attachment. ξE = NC(CCC(=O)O)C(=O)O; Cbz = O=C(OCc1ccccc1)*; OBn = c1ccc(CO*)cc1

Tested on: CD2F1 mice, L1210 leukemia ip, survival T/C
Experiment: NCI In Vivo Anticancer Drug Screen. Data for tumor model L1210 Leukemia (intraperitoneal) in CD2F1 (CDF1) mice
Conditions: endpoint: mean survival time, higher = longer survival
Outline: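 Antitumor effect is scored in animals hosting a serially transplanted tumor. Values compare compound-dosed animals against vehicle-only controls as a simple quotient.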

[1] = dose: 50.0 mg/kg/injection, schedule: Q01DX009 (ip), vehicle: saline with Tween-80
[2] = dose: 100.0 mg/kg/injection, schedule: Q01DX009 (ip), vehicle: saline with Tween-80
[3] = dose: 100.0 mg/kg/injection, schedule: Q04DX003 (ip), vehicle: saline with Tween-80
[4] = dose: 200.0 mg/kg/injection, schedule: Q01DX009 (ip), vehicle: saline with Tween-80
[5] = dose: 200.0 mg/kg/injection, schedule: Q04DX003 (ip), vehicle: saline with Tween-80
[6] = dose: 100.0 mg/kg/injection, schedule: Q01DX001 (ip), vehicle: saline with Tween-80
[7] = dose: 200.0 mg/kg/injection, schedule: Q01DX001 (ip), vehicle: saline with Tween-80
[8] = dose: 400.0 mg/kg/injection, schedule: Q01DX001 (ip), vehicle: saline with Tween-80
[9] = dose: 400.0 mg/kg/injection, schedule: Q04DX003 (ip), vehicle: saline with Tween-80
[10] = dose: 100.0 mg/kg/injection, schedule: Q04DX002 (ip), vehicle: saline with Tween-80
[11] = dose: 200.0 mg/kg/injection, schedule: Q04DX002 (ip), vehicle: saline with Tween-80
[12] = dose: 400.0 mg/kg/injection, schedule: Q04DX002 (ip), vehicle: saline with Tween-80
[13] = dose: 12.5 mg/kg/injection, schedule: Q01DX009 (ip), vehicle: saline with Tween-80
[14] = dose: 25.0 mg/kg/injection, schedule: Q01DX009 (ip), vehicle: saline
[15] = dose: 50.0 mg/kg/injection, schedule: Q01DX009 (ip), vehicle: saline
[16] = dose: 100.0 mg/kg/injection, schedule: Q01DX009 (ip), vehicle: saline
[17] = dose: 400.0 mg/kg/injection, schedule: Q01DX009 (ip), vehicle: saline with Tween-80
[18] = dose: 50.0 mg/kg/injection, schedule: Q04DX002 (ip), vehicle: saline with Tween-80

Measured: T/C

CCCCCCCCCCCCCCCC(=O)N1CCC(N2CCCCC2)CC1
inactive: [1] 95 % of control | [2] 97 % of control | [3] 92 % of control | [4] 92 % of control | [5] 88 % of control

COC(=O)/C(C#N)=C\c1ccccc1
inactive: [1] 95 % of control | [2] 95 % of control | [4] 92 % of control

COC1OC2COc3ccccc3OC2C(NC#N)C1OC(C)=O (stereo not given)
inactive: [6] 101 % of control | [7] 100 % of control | [8] 100 % of control

CCCCOB(OCCCC)OCCCC
inactive: [3] 98 % of control | [5] 93 % of control | [9] 103 % of control

CC(C)(C)OC(=O)NC(CC(N)=O)C(=O)O (stereo not given)
inactive: dose: 100.0 mg/kg/injection, schedule: Q01DX001 (ip), vehicle: saline sonified 98 % of control | dose: 200.0 mg/kg/injection, schedule: Q01DX001 (ip), vehicle: saline sonified 93 % of control | dose: 400.0 mg/kg/injection, schedule: Q01DX001 (ip), vehicle: saline sonified 98 % of control

O=C1NC(=S)S/C1=C\c1ccc(Cl)c(Cl)c1
inactive: [3] 106 % of control | [5] 94 % of control | [9] 97 % of control

CCOC1(OCC)C2C=CC1C(C#N)(C#N)C2(C#N)C#N
inactive: dose: 75.0 mg/kg/injection, schedule: Q01DX001 (ip), vehicle: saline 103 % of control | dose: 150.0 mg/kg/injection, schedule: Q01DX001 (ip), vehicle: saline 104 % of control

O=S(c1cc(Cl)ccc1O)c1cc(Cl)ccc1O
inactive: [3] 98 % of control | [5] 89 % of control

CCC(Cc1ccccc1Br)C1=NC(C)(C)CO1 (stereo not given)
inactive: dose: 100.0 mg/kg/injection, schedule: Q01DX001 (ip), vehicle: acetone 96 % of control | dose: 200.0 mg/kg/injection, schedule: Q01DX001 (ip), vehicle: acetone 98 % of control

CC1CC=C(/C=N/Nc2ccc([N+](=O)[O-])cc2[N+](=O)[O-])C(C)O1 (stereo not given)
inactive: [6] 107 % of control | [7] 101 % of control | [8] 98 % of control

CCOC(=O)Nc1cccc(F)c1C
inactive: [10] 105 % of control | [11] 109 % of control | [12] 94 % of control

Nc1ccc2ncccc2c1
inactive: dose: 25.0 mg/kg/injection, schedule: Q01DX009 (ip), vehicle: other 93 % of control | dose: 50.0 mg/kg/injection, schedule: Q01DX009 (ip), vehicle: other 95 % of control | dose: 100.0 mg/kg/injection, schedule: Q01DX009 (ip), vehicle: other 91 % of control

Cn1cnc([N+](=O)[O-])c1SCC(=O)O
inactive: [13] 95 % of control | dose: 12.5 mg/kg/injection, schedule: Q01DX009 (ip), vehicle: saline 109 % of control | dose: 25.0 mg/kg/injection, schedule: Q01DX009 (ip), vehicle: saline with Tween-80 98 % of control | [14] 112 % of control | [1] 95 % of control | [15] 109 % of control | [2] 98 % of control | [16] 101 % of control | [4] 104 % of control | dose: 200.0 mg/kg/injection, schedule: Q01DX009 (ip), vehicle: saline 104 % of control | [17] 98 % of control | dose: 400.0 mg/kg/injection, schedule: Q01DX009 (ip), vehicle: saline 109 % of control

CCOC(=O)c1ccc(NC(=O)Nc2cc(Cl)c(Cl)cc2C)cc1
inactive: dose: 3.13 mg/kg/injection, schedule: Q01DX001 (ip), vehicle: saline with Tween-80 93 % of control | dose: 3.13 mg/kg/injection, schedule: Q04DX003 (ip), vehicle: saline with Tween-80 90 % of control | dose: 6.25 mg/kg/injection, schedule: Q01DX001 (ip), vehicle: saline with Tween-80 92 % of control | dose: 6.25 mg/kg/injection, schedule: Q01DX009 (ip), vehicle: saline with Tween-80 86 % of control and 89 % of control | dose: 6.25 mg/kg/injection, schedule: Q04DX002 (ip), vehicle: saline with Tween-80 91 % of control and 97 % of control | dose: 6.25 mg/kg/injection, schedule: Q04DX003 (ip), vehicle: saline with Tween-80 89 % of control | dose: 12.5 mg/kg/injection, schedule: Q01DX001 (ip), vehicle: saline with Tween-80 93 % of control | [13] 86 % of control | dose: 12.5 mg/kg/injection, schedule: Q04DX002 (ip), vehicle: saline with Tween-80 91 % of control | dose: 25.0 mg/kg/injection, schedule: Q04DX003 (ip), vehicle: saline with Tween-80 90 % of control | [18] 91 % of control | [2] 88 % of control | [12] 88 % of control

COc1ccc(COC(=O)Nc2ccc(C)cc2)cc1
inactive: [18] 100 % of control | [10] 100 % of control | [11] 96 % of control

NCc1cccnc1
inactive: dose: 100.0 mg/kg/injection, schedule: Q04DX002 (ip), vehicle: saline 96 % of control | dose: 200.0 mg/kg/injection, schedule: Q04DX002 (ip), vehicle: saline 107 % of control | dose: 400.0 mg/kg/injection, schedule: Q04DX002 (ip), vehicle: saline 111 % of control

O=C(CNC(=O)OCc1ccccc1)NCC(=O)NC(CCC(=O)OCc1ccccc1)C(=O)OCc1ccccc1 (stereo not drawn) (Cbz-Gly-Gly-[ξE](OBn)-OBn)
inactive: dose: 100.0 mg/kg/injection, schedule: Q04DX003 (ip), vehicle: other 95 % of control | dose: 200.0 mg/kg/injection, schedule: Q04DX003 (ip), vehicle: other 91 % of control | dose: 400.0 mg/kg/injection, schedule: Q04DX003 (ip), vehicle: other 95 % of control

CC(=NC(c1ccccc1)c1ccccc1)N(C)C
inactive: dose: 25.0 mg/kg/injection, schedule: Q04DX002 (ip), vehicle: saline with Tween-80 102 % of control | [18] 98 % of control | [10] 102 % of control

Nc1c(Cl)ncnc1NNC(=O)OCc1ccccc1
inactive: dose: 100.0 mg/kg/injection, schedule: Q01DX001 (ip), vehicle: carboxymethylcellulose (CMC) 104 % of control | dose: 200.0 mg/kg/injection, schedule: Q01DX001 (ip), vehicle: carboxymethylcellulose (CMC) 98 % of control | dose: 400.0 mg/kg/injection, schedule: Q01DX001 (ip), vehicle: carboxymethylcellulose (CMC) 103 % of control

CCCCC=C1CC(C)CCC(C)C1 (stereo not given)
inactive: dose: 100.0 mg/kg/injection, schedule: Q04DX003 (ip), vehicle: saline 101 % of control | dose: 200.0 mg/kg/injection, schedule: Q04DX003 (ip), vehicle: saline 104 % of control | dose: 400.0 mg/kg/injection, schedule: Q04DX003 (ip), vehicle: saline 104 % of control

CCCCCCC(=C/c1ccccc1)/C=N/NC(=O)c1ccc[n+](C)c1
inactive: [3] 98 % of control

Cc1ccc(NC(=O)OCCOc2ccc([N+](=O)[O-])cc2)c(C)c1
inactive: [1] 93 % of control | [2] 98 % of control | [4] 89 % of control

O=[N+]([O-])c1cccc(N=C(Nc2cccc([N+](=O)[O-])c2)c2ccccc2)c1
inactive: [3] 113 % of control | [5] 107 % of control | [9] 103 % of control

COC(=O)COc1ccccc1Cl
inactive: [6] 102 % of control | [7] 102 % of control | [8] 104 % of control

O=C(/C=C/c1ccccc1)NC(=S)NCc1ccccc1
inactive: [6] 91 % of control | [2] 97 % of control and 100 % of control | [10] 89 % of control and 94 % of control and 98 % of control | [7] 88 % of control | [4] 94 % of control and 104 % of control | [8] 91 % of control | [17] 101 % of control and 105 % of control

Cc1oc(N)c(C(N)=O)c1C
inactive: dose: 100.0 mg/kg/injection, schedule: Q01DX009 (ip), vehicle: saline sonified 103 % of control | [3] 100 % of control | dose: 200.0 mg/kg/injection, schedule: Q01DX009 (ip), vehicle: saline sonified 93 % of control | [5] 100 % of control | dose: 400.0 mg/kg/injection, schedule: Q01DX009 (ip), vehicle: saline sonified 92 % of control | [9] 94 % of control

CC(C)N1CCC1CO (stereo not given)
inactive: [14] 96 % of control | [15] 100 % of control | [16] 94 % of control

COc1ccc(NC(C)=O)c(O)c1OC
inactive: [6] 95 % of control | [10] 103 % of control | [7] 92 % of control | [11] 106 % of control | [8] 95 % of control | [12] 98 % of control
